Data reported in publication PMC6438990 (Cellular and Molecular Gastroenterology and Hepatology, 2019).

Target: T1, SLC26A3 (DRA, down-regulated in adenoma) (Homo sapiens, UniProt P40879)
T1 sequence (P40879 1-764): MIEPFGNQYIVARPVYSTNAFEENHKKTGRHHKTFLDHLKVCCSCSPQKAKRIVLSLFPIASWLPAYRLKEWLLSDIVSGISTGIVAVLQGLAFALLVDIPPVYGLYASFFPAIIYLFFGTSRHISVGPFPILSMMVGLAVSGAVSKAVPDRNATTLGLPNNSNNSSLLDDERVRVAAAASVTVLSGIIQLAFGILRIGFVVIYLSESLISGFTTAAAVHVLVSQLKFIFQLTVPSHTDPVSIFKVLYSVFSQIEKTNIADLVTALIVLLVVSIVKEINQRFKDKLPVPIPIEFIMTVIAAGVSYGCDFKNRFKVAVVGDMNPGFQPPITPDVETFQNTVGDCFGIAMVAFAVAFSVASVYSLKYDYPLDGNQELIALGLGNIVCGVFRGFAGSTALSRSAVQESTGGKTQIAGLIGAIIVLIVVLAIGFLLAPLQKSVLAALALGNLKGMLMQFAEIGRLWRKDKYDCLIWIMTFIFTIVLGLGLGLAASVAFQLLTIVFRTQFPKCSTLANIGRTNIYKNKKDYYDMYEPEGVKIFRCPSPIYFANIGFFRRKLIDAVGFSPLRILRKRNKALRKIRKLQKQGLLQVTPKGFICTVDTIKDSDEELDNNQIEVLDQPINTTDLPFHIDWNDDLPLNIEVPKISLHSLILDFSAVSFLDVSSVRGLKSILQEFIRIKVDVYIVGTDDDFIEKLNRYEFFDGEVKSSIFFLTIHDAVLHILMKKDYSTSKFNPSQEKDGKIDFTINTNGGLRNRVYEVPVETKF
Assay type: cell-based

IC50: 120 ± 40 nM
SMILES: Cc1c(CC(=O)O)c(=O)oc2c(C)c(OCc3cccc(Br)c3)ccc12 [DRAinh-A250]
